Source: patent US20030026831A1, “Anionic liposomes for delivery of bioactive agents” (priority 2001, published 2003)
Where two headings read alike, the source gives them in different places.

Tests used:
hippocampal neurons [1] = test: Endocytosis assays: agents acting on AL-Cy3ON internalization; assay type: cell-based, rat; details: 10 minutes pretreatment (0.45 M sucrose, 1 μM FK506, 500 nM RAP, 100 μg/ml heparin or protamine sulfate, 5 μg/ml nocodazole, 10 μg/ml cytochalasin D, 100 nM wortmannin), then AL-Cy3ONs 30 minutes at 37° C.
Protocol: Endocytosis Assays. The following agents were used to manipulate specific steps of the endocytic cycle: 0.45 M hyperosmolar sucrose (ICN biochemicals), 1 μM FK-506 (Calbiochem), and 100 nM wortmannin, 5 μg/ml nocodazole, 10 μg/ml cytochalasin D, 100 μg/ml heparin and 100 μg/ml protamine sulfate, (all from Sigma-Aldrich). Receptor-associated protein (RAP) was a generous gift from Dr. Guojun Bu (Washington University, St. Louis, Mo.) and was used at a concentration of 500 nM (Bu et al., 1994). Cells were treated with the drugs or RAP for 10 minutes prior to incubation with AL-Cy3ONs for 30 minutes at 37° C. and fixed for imaging.
Confocal Microscopy and Image Analysis. Imaging was performed on a Leica TCS 4D confocal microscope (Deerfield, Ill.) equipped with a Mercury/Xenon lamp and argon/krypton laser. Cells were excited using the 488 nm laser line to detect Oregon Green 488-Transferrin and Alexa488-Dextran, and the emitted fluorescence was collected using a 515 long-pass filter. The 568 nm laser line was used to excite Cy3 and N—Rh-DOPE (LP590 emission). Cells were imaged at a plane midway between the substrate-attached plasma membrane and the top of the cell, such that neuronal nuclei were clearly identifiable. In some cases, the entire volume of the cell was scanned in 0.5 μm increments. Optimal images were obtained by averaging 16 images in the line-scan mode at the same fixed gains for all experiments. All fluorescent images presented in figures were equally contrast enhanced using ADOBE PHOTOSHOP (Adobe, Mountain View, Calif.).

hippocampal neurons [2] = assay type: cell-based, rat; details: for Neuronal survival after glutamate: survival at 48 hours
Protocol: Hippocampal Cell Culture. Primary cultures of hippocampal neurons were prepared from neonatal rat pups (p1 or p2) as previously described (Dubinsky, 1993). Neurons were plated at a density of 60,000 cells/cm^2 onto polylysine-coated plastic 12-well plates or 100 mm dishes (Becton Dickinson, Franklin Lakes, N.J.) in Neurobasal medium with B27 supplements (Life technologies, Rockville, Md.) and 0.5 mM glutamine. Fluorodeoxyuridine (15 μg/ml) was added to the cultures 24 hours after plating to inhibit glial growth. Under these culture conditions, the survival and growth of non-neuronal cells was minimized. Cells were maintained at 37° C. in 95% air/5% CO2 and were used between 6-8 days in vitro.
Neuroprotection Experiments. […] The ratio of viable cells to the total number of neurons in the pre-selected fields was calculated for quantifying survival.

hippocampal neurons [3] = test: Lipid exacerbation of sub-maximal glutamate toxicity
Protocol: FIG. 9. […] Arrowhead: amount of anionic lipid present in liposomes corresponding to a 1 μM final concentration of ON. Arrow: amount of cationic lipid present in complexes corresponding to a +/−charge ratio of 1/2 and 1 μM final concentration of ON. 20, 40, and 100 μg DC-Chol/DOPE correspond to amounts present in complexes of +/−charge ratio 1.6/1, 3.2/1, and 8/1 (μmole lipid/μmole ON), respectively, for a 1 μM final ON concentration. Data expressed as Mean ±S.E.M., n≧9.
Neurons were treated with amounts of cationic lipid required to complex 1 μM ONs in +/−charge ratios (μmole lipid/μmole ON) of 1/2, 1.6/1, 3.2/1 and 8/1 (6.25, 20, 40 and 100 μg DC-Chol, respectively).

neurons = test: Toxicity screening of commercial cationic lipids; details: 8 hours after incubation, compared to untreated controls
[4] = 20 μM each, added 1-2 minutes before 50 μM glutamate
[5] = Lipid/ON (+/−) charge ratio 1/1
[6] = Lipid/ON (+/−) charge ratio 2/1

## OC[C@H]1O[C@@](CO)(O[C@H]2O[C@H](CO)[C@@H](O)[C@H](O)[C@H]2O)[C@@H](O)[C@@H]1O [sucrose]
Hippocampal neurons [1]
  Effect on binding/internalization of AL-Cy3ONs by neurons: completely prevented internalization

## N#Cc1cc2[nH]c(=O)c(=O)[nH]c2cc1[N+](=O)[O-] [CNQX]
Hippocampal neurons [2]; [4]
  Neuronal survival after glutamate: significantly increased the survival of glutamate-treated neurons

## RAP: 39 kDa LRP receptor-associated protein, inhibitor of all known ligand interactions of LRP
Hippocampal neurons [1]
  Effect on binding/internalization of AL-Cy3ONs by neurons: both binding and internalization of anionic liposomes was inhibited

## CC(C)CCC[C@@H](C)[C@H]1CC[C@H]2[C@@H]3CC=C4C[C@@H](OC(=O)NCCN(C)C)CC[C@]4(C)[C@H]3CC[C@]12C [DC-Chol, 3β-[N-(N′,N′-dimethylaminoethane)-carbamol] cholesterol]
Hippocampal neurons [3]; 6.25 μg DC-Chol (+/− charge ratio 1/2 for 1 μM ON), 48 hours post-glutamate
  Neuronal survival: survived 48 hours post-glutamate
Hippocampal neurons [3]; 20, 40 and 100 μg DC-Chol (charge ratios 1.6/1, 3.2/1, 8/1), 48 hours post-glutamate
  Neuronal survival: caused extensive neuronal loss
neurons; [5]
  % Neuronal survival: 45.7%
neurons; [6]
  % Neuronal survival: 17.3%

## CCCCCCCC/C=C\CCCCCCCC(=O)OCC(C[N+](C)(C)C)OC(=O)CCCCCCC/C=C\CCCCCCCC (stereo not drawn) [DOTAP, 1,2-dioleoyl-3-trimethylammonium-propane]
neurons; [5]
  % Neuronal survival: 28.2%
neurons; [6]
  % Neuronal survival: ˜0%

## COC(=O)Nc1nc2ccc(C(=O)c3cccs3)cc2[nH]1 [nocodazole]
Hippocampal neurons [1]
  Effect on binding/internalization of AL-Cy3ONs by neurons: intracellular transport was inhibited

## CCCCCCCC/C=C\CCCCCCCC(=O)OC[C@H](COP(=O)(O)OC[C@H](N)C(=O)O)OC(=O)CCCCCCC/C=C\CCCCCCCC [DOPS, 1,2-dioleoyl-sn-glycero-3-[phospho-L-serine]]
Hippocampal neurons [3]; 40 μg lipid (liposomes without AsONs), then 10 μM glutamate for 48 hours
  Neuronal survival: 48%
Hippocampal neurons [3]; liposomes without AsONs, then 10 μM glutamate for 48 hours
  Effect of increasing amounts of lipid on glutamate toxicity: dose-dependently exacerbate toxicity

## heparin
Hippocampal neurons [1]
  Effect on binding/internalization of AL-Cy3ONs by neurons: Neither heparin nor protamine altered the level of Cy3 fluorescence within neurons

## p53 phosphodiester AsONs: free phosphodiester 5′-CTGTGAATCCTCCATGAC-3′ (SEQ ID NO:2) (unmodified DNA; listed as Rattus norvegicus)
Hippocampal neurons [2]; without encapsulation in anionic liposomes, 50 μM glutamate, 48 hours
  Neuroprotection by free ONs: not neuroprotective

## C[C@]12N[C@H](Cc3ccccc31)c1ccccc12 [MK-801]
Hippocampal neurons [2]; [4]
  Neuronal survival after glutamate: significantly increased the survival of glutamate-treated neurons

## Cc1ccc(C(=O)Cn2c3c(sc2=N)CCCC3)cc1 [PFT-α, Pifithrin-α]
Hippocampal neurons [2]
  Concentrations toxic in hippocampal cultures: 20 to 100 µM
Hippocampal neurons [2]; 10 μM, added 3 hours before 50 μM glutamate
  Neuronal survival after glutamate: significantly increased the survival of glutamate-treated neurons
Hippocampal neurons [2]; 50 μM glutamate
  Concentrations not protective: 0.5 to 7 µM

## protamine sulfate
Hippocampal neurons [1]
  Effect on binding/internalization of AL-Cy3ONs by neurons: Neither heparin nor protamine altered the level of Cy3 fluorescence within neurons

## N[C@@H](CCC(=O)O)C(=O)O [glutamate]
Hippocampal neurons [3]; 48 hour exposure to 10 μM glutamate alone
  Neuronal survival: 71%

## C=C1[C@@H](C)[C@H]2[C@H](Cc3ccccc3)NC(=O)[C@]23[C@H](OC(C)=O)/C=C/[C@@](C)(O)C(=O)[C@@H](C)C/C=C/[C@H]3[C@@H]1O [cytochalasin D]
Hippocampal neurons [1]
  Effect on binding/internalization of AL-Cy3ONs by neurons: prevented both binding and internalization of the liposomes
